The record followed here is PubChem BioAssay (NCI).

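Grown in 96-well plates, cells were treated for 48 hours with each compound at five concentrations. Insufficient inhibition: endpoint recorded as highest concentration tested. At the GI50, growth is halved. TGI denotes the concentration required for complete inhibition of growth.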

Some test systems named below: HOP-92 NSCLC; UACC-257 melanoma; MCF7 breast; SN12C renal; HL-60(TB) leukemia; SK-MEL-5 melanoma; ACHN renal; CCRF-CEM leukemia; NCI-H460 lung; HCT-116 colon.
Holding throughout (assay): DTP human tumour cell line panel, 48 h

With `C=C1C(=O)O[C@H]2[C@H]1CC/C(COC(=O)C(C)c1ccc(CC(C)C)cc1)=C\CC[C@@]1(C)O[C@@H]21` (some centres undefined), the GI50 is 747 nM in the experiment with HOP-92 NSCLC; 1660 nM in the experiment on UACC-257 melanoma; 791 nM in the experiment on MCF7 breast; 1340 nM in the experiment with SN12C renal; 647 nM with HL-60(TB) leukemia; 1600 nM in the experiment on SK-MEL-5 melanoma. In addition, the GI50 in the experiment on ACHN renal was 1290 nM; with CCRF-CEM leukemia, 228 nM; in the experiment with NCI-H460 lung, 1560 nM; in the experiment with HCT-116 colon it was 187 nM. Moreover, the TGI with HOP-92 NSCLC turned out to be 2140 nM; in the experiment on UACC-257 melanoma, 3320 nM; in the experiment with MCF7 breast it was 2490 nM; in the experiment on SN12C renal, 2720 nM; with HL-60(TB) leukemia, 2680 nM; in the experiment with SK-MEL-5 melanoma it was 2960 nM. Moreover, the TGI in the experiment on ACHN renal turned out to be 2560 nM; with CCRF-CEM leukemia, 1030 nM; with NCI-H460 lung it was 3160 nM; in the experiment on HCT-116 colon it was 376 nM.
Take `C=C(CO)[C@@H]1CC[C@]2(COC3CCCCO3)CC[C@]3(C)[C@H](CC[C@@H]4[C@@]5(C)C=C(C=O)C(=O)C(C)(C)[C@@H]5CC[C@]43C)[C@@H]12` (some centres undefined): the GI50 with HOP-92 NSCLC is 147 nM; in the experiment on UACC-257 melanoma, 367 nM; with MCF7 breast, 479 nM; in the experiment with SN12C renal, 228 nM; with HL-60(TB) leukemia, 250 nM; in the experiment with SK-MEL-5 melanoma, 380 nM. Moreover, the GI50 in the experiment with ACHN renal is 210 nM; with CCRF-CEM leukemia, 211 nM; with NCI-H460 lung, 500 nM; in the experiment on HCT-116 colon, 303 nM. The TGI is 312 nM with HOP-92 NSCLC; 1610 nM in the experiment with UACC-257 melanoma; 1970 nM in the experiment on MCF7 breast; 671 nM with SN12C renal; 994 nM in the experiment with HL-60(TB) leukemia; 1460 nM in the experiment with SK-MEL-5 melanoma. In addition, the concentration for total growth inhibition (TGI) in the experiment with ACHN renal is 488 nM; in the experiment on CCRF-CEM leukemia, 1120 nM; with NCI-H460 lung, 1750 nM; in the experiment on HCT-116 colon, 1080 nM.
Turning to `OCCNc1nc(Nc2ccc(Cl)c(Cl)c2)nc2ccccc12`, the GI50 is 2050 nM in the experiment with HOP-92 NSCLC; 11100 nM in the experiment on UACC-257 melanoma; 1960 nM in the experiment on MCF7 breast; 5370 nM in the experiment with SN12C renal; 8690 nM in the experiment on HL-60(TB) leukemia; 4750 nM in the experiment on SK-MEL-5 melanoma. Also, the GI50 with ACHN renal is 4800 nM; with CCRF-CEM leukemia, 3070 nM; with NCI-H460 lung, 3710 nM; in the experiment with HCT-116 colon, 3520 nM. Also, the total growth inhibition concentration (TGI) in the experiment with HOP-92 NSCLC was found to be 7510 nM; in the experiment with UACC-257 melanoma, 23100 nM; with MCF7 breast, 14600 nM; in the experiment on SN12C renal, 20700 nM; in the experiment with HL-60(TB) leukemia, 33400 nM; with SK-MEL-5 melanoma, 17700 nM. The TGI came to 18300 nM with ACHN renal, 18100 nM in the experiment on CCRF-CEM leukemia, 16500 nM in the experiment with NCI-H460 lung and 14600 nM with HCT-116 colon.
`CCCN(CCC)c1ccc(/C=N/NC(=O)c2cccnc2)c(OC)c1`: the GI50 with HOP-92 NSCLC is 13400 nM; with UACC-257 melanoma it was 20700 nM; with MCF7 breast, 19100 nM; with SN12C renal, 36100 nM; in the experiment on HL-60(TB) leukemia it was 22700 nM; in the experiment with SK-MEL-5 melanoma, 14300 nM. For the same compound, the GI50 was 28800 nM in the experiment with ACHN renal, 25500 nM in the experiment with CCRF-CEM leukemia, 24100 nM in the experiment with NCI-H460 lung and 22700 nM in the experiment with HCT-116 colon. In addition, the TGI with HOP-92 NSCLC was 61800 nM; with UACC-257 melanoma, 67600 nM; in the experiment on MCF7 breast it was 89100 nM; in the experiment on SN12C renal it was more than 100000 nM; in the experiment on HL-60(TB) leukemia it was 59200 nM; in the experiment on SK-MEL-5 melanoma it was 28100 nM. The TGI is more than 100000 nM in the experiment with ACHN renal, more than 100000 nM with CCRF-CEM leukemia, 75400 nM with NCI-H460 lung and more than 100000 nM in the experiment on HCT-116 colon.
Consider `CCc1ccc(C(=Nc2ccc(N(C)C(=O)CN3CCN(C)CC3)cc2)c2c(O)[nH]c3ccc(C(=O)OC)cc23)cc1`, for which the GI50 with HOP-92 NSCLC is 1230 nM; in the experiment on UACC-257 melanoma, 1540 nM; in the experiment on MCF7 breast it was 256 nM; in the experiment with SN12C renal it was 223 nM; in the experiment with HL-60(TB) leukemia it was 328 nM; in the experiment on SK-MEL-5 melanoma, 1200 nM. Also, the concentration for 50% growth inhibition (GI50) was 332 nM with ACHN renal, 256 nM in the experiment with CCRF-CEM leukemia, 748 nM with NCI-H460 lung and 99.5 nM in the experiment on HCT-116 colon. The TGI is 2630 nM in the experiment with HOP-92 NSCLC; 3200 nM in the experiment on UACC-257 melanoma; 1400 nM in the experiment on MCF7 breast; 1610 nM with SN12C renal; 1010 nM in the experiment on HL-60(TB) leukemia; 2470 nM in the experiment with SK-MEL-5 melanoma. The TGI turned out to be 1430 nM in the experiment on ACHN renal, 1160 nM in the experiment on CCRF-CEM leukemia, 2210 nM in the experiment on NCI-H460 lung and 1120 nM in the experiment with HCT-116 colon.
`Fc1cccc(-n2ccc(-c3ccccc3)nc2=S)c1`: the GI50 in the experiment with HOP-92 NSCLC was 862 nM; in the experiment on UACC-257 melanoma it was 46700 nM; in the experiment with MCF7 breast, 18500 nM; with SN12C renal it was 3010 nM; with HL-60(TB) leukemia, 94000 nM; in the experiment on SK-MEL-5 melanoma, 23100 nM. Besides, the GI50 in the experiment on ACHN renal is 16700 nM; in the experiment on CCRF-CEM leukemia, more than 85300 nM; in the experiment on NCI-H460 lung, more than 100000 nM; in the experiment with HCT-116 colon it was 21900 nM. Moreover, the TGI with HOP-92 NSCLC was 41600 nM; in the experiment on UACC-257 melanoma, more than 100000 nM; in the experiment with MCF7 breast, 41200 nM; with SN12C renal it was 10400 nM; in the experiment with HL-60(TB) leukemia, more than 100000 nM; with SK-MEL-5 melanoma it was more than 73100 nM. Also, the TGI is 30400 nM in the experiment with ACHN renal, more than 100000 nM with CCRF-CEM leukemia, more than 100000 nM in the experiment on NCI-H460 lung and 61300 nM in the experiment on HCT-116 colon.
On to `CC(=[N-])N1CCC[C@@H](Nc2c3ccccc3nc3ccccc23)C1.[Cl][Pt].[NH-]CCC[NH-]`, for which the GI50 with HOP-92 NSCLC is 2210 nM; with UACC-257 melanoma it was 2490 nM; with MCF7 breast, 357 nM; with SN12C renal, 21.4 nM; with HL-60(TB) leukemia it was 2040 nM; in the experiment with SK-MEL-5 melanoma it was 127 nM. Moreover, the GI50 in the experiment with ACHN renal is 159 nM; with CCRF-CEM leukemia, 1580 nM; with NCI-H460 lung it was 27.7 nM; with HCT-116 colon, 1280 nM. The TGI was 8360 nM with HOP-92 NSCLC; more than 100000 nM in the experiment on UACC-257 melanoma; more than 100000 nM in the experiment with MCF7 breast; more than 100000 nM in the experiment with HL-60(TB) leukemia; 291 nM in the experiment on SK-MEL-5 melanoma; 2470 nM with ACHN renal. In addition, the figures for the TGI with CCRF-CEM leukemia, in the experiment on NCI-H460 lung and in the experiment with HCT-116 colon were more than 100000 nM, more than 40800 nM and more than 100000 nM, respectively.

The GI50 is the concentration giving 50% growth inhibition. As usually defined, the TGI is the concentration at which net growth stops. The low end stands for more potent growth arrest, the high end for less potent growth arrest.
